From patent US20260224584A1 (priority 2023, published 2026)
Structures can show the parent of a compound that is named as a salt.

Test system: Human WB (90%) CD69
Test: Human WB (90%) CD69
Assay type: cell-based
Details: read-out: Human WB (90%) CD69 IC50 (nM); human whole blood (90%), CD69 readout

Compared with `CC(C)N1CCN(c2ccc(-c3cc(NCCN4CCOCC4)c4nc(C5CCC5)n(C)c4c3)cc2)CC1` [Example 32, 2-cyclobutyl-6-(4-(4-isopropylpiperazin-1-yl)phenyl)-1-methyl-N-(2-morpholinoethyl)-1H-benzo[d]imidazol-4-amine, 2 TFA], `CC(C)N1CCN(c2ccc(-c3cc(NCCN4CCOCC4)c4nc(C5CCS(=O)(=O)CC5)n(C)c4c3)cc2)CC1` [Example 42, 4-(6-(4-(4-isopropylpiperazin-1-yl)phenyl)-1-methyl-4-((2-morpholinoethyl)amino)-1H-benzo[d]imidazol-2-yl)tetrahydro-2H-thiopyran 1,1-dioxide] is 12-fold higher in IC50: 79 nM for the first, 925 nM for the second.

Compared with `Cc1cc(C)nc(Nc2cc(-c3ccc(N4CCN(C(C)C)CC4)cc3)cc3c2nc(C2CC2)n3C)c1` [Example 33, 2-cyclopropyl-N-(4,6-dimethylpyridin-2-yl)-6-(4-(4-isopropylpiperazin-1-yl)phenyl)-1-methyl-1H-benzo[d]imidazol-4-amine, TFA], `Cc1cc(C)nc(Nc2cc(-c3ccc(N4CCN(C(C)C)CC4)cc3)cc3c2nc(C2CCC2)n3C)c1` [Example 34, 2-cyclobutyl-N-(4,6-dimethylpyridin-2-yl)-6-(4-(4-isopropylpiperazin-1-yl)phenyl)-1-methyl-1H-benzo[d]imidazol-4-amine, TFA] is 2.4-fold higher in IC50: 245 nM for the first, 587 nM for the second.

First: CC(C)N1CCN(c2ccc(-c3cc(NCCN4CCC(F)(F)CC4)c4nc(-c5ccc(S(C)(=O)=O)cc5)n(C)c4c3)cc2)CC1 [Example 35, N-(2-(4,4-difluoropiperidin-1-yl)ethyl)-6-(4-(4-isopropylpiperazin-1-yl)phenyl)-1-methyl-2-(4-(methylsulfonyl)phenyl)-1H-benzo[d]imidazol-4-amine]
Second: CC(C)N1CCN(c2ccc(-c3cc(NCc4ccc(CN5CCOCC5)cc4)c4nc(-c5ccc(S(C)(=O)=O)cc5)n(C)c4c3)cc2)CC1 [Example 36, 6-(4-(4-isopropylpiperazin-1-yl)phenyl)-1-methyl-2-(4-(methylsulfonyl)phenyl)-N-(4-(morpholinomethyl)benzyl)-1H-benzo[d]imidazol-4-amine]
The IC50 of the first is 2.6-fold higher: 571 nM for the first, 221 nM for the second.

Compared with `CC(C)N1CCN(c2ccc(-c3cc(Nc4ccc(N5CCOCC5)nn4)c4nc(-c5ccc(S(C)(=O)=O)cc5)n(C)c4c3)cc2)CC1` [Example 37, 6-(4-(4-isopropylpiperazin-1-yl)phenyl)-1-methyl-2-(4-(methylsulfonyl)phenyl)-N-(6-morpholinopyridazin-3-yl)-1H-benzo[d]imidazol-4-amine, TFA], `Cc1cc(C)nc(Nc2cc(-c3ccc(N4CCN(C5CCOCC5)CC4)cc3)cc3c2nc(-c2ccc(S(C)(=O)=O)cc2)n3C)c1` [Example 38, N-(4,6-dimethylpyridin-2-yl)-1-methyl-2-(4-(methylsulfonyl)phenyl)-6-(4-(4-(tetrahydro-2H-pyran-4-yl)piperazin-1-yl)phenyl)-1H-benzo[d]imidazol-4-amine] is 5.4-fold higher in IC50: 167 nM for the first, 899 nM for the second.

Compared with `CC(C)N1CCN(c2ccc(-c3cc(NCCN4CCOCC4)c4ncn(C)c4c3)cc2)CC1` [Example 39, 6-(4-(4-isopropylpiperazin-1-yl)phenyl)-1-methyl-N-(2-morpholinoethyl)-1H-benzo[d]imidazol-4-amine, 2 TFA], `Cc1cc(C)nc(Nc2cc(-c3ccc(N4CCN(C(C)C)CC4)cc3)cc3c2ncn3C)c1` [Example 40, N-(4,6-dimethylpyridin-2-yl)-6-(4-(4-isopropylpiperazin-1-yl)phenyl)-1-methyl-1H-benzo[d]imidazol-4-amine] is 2-fold higher in IC50: 283 nM for the first, 565 nM for the second. The first is the more potent here.

`Cc1cc(C)nc(Nc2cc(-c3ccc(N4CCN(C(C)C)CC4)cc3)cc3c2nc(C2CCS(=O)(=O)CC2)n3C)c1` [Example 41, 4-(4-((4,6-dimethylpyridin-2-yl)amino)-6-(4-(4-isopropylpiperazin-1-yl)phenyl)-1-methyl-1H-benzo[d]imidazol-2-yl)tetrahydro-2H-thiopyran 1,1-dioxide. TFA] showed an IC50 of 128 nM.
